{
  "source": "paper PMC9629815",
  "about": "“MK256 is a novel CDK8 inhibitor with potent antitumor activity in AML through downregulation of the STAT pathway” (Oncotarget, 2022)",
  "key": {"CYR2C8": {"target": "CYR2C8 (Homo sapiens, UniProt P10632)", "assay": "Cytochrome P450 inhibition assay", "assay_type": "in vitro ADME", "conditions": "50 uM"}, "[1]": {"assay": "Hepatocyte stability assay", "assay_type": "in vitro ADME, Human", "protocol": "Human LiverPoolTM 20-donor, dog and mouse cryopreserved hepatocytes were obtained from BioreclamationIVT. Cryopreserved hepatocytes were removed from the liquid nitrogen tank and thawed in a 37°C water bath. As soon as the cells pulled away from the vial wall, they were decanted into 48 ml of warm HT medium. Cells were centrifuged for four minutes at 420 rpm (50 g). After the supernatant was removed, the pellet was re-suspended in warm DMEM medium. Cell density was counted by a hemacytometer. The assay was carried out in 96-well microtiter plates. MK256 was incubated for 0, 60, 120, and 180 minutes at 37°C with hepatocytes. Reaction mixtures (50 μL) contained a final concentration of 1 μM MK256, 0.5 million cells/mL hepatocytes in the DMEM medium. At each time point (for example, 0, 1, 2, and 3 hrs), 200 μL of quench solution (100% acetonitrile with 0.1% formic acid) with internal standard were transferred to each well. […] All samples were analyzed on LC/MS/MS using an AB Sciex API 4000 instrument, coupled to a Shimadzu LC-20AD LC Pump system. […] The extent of metabolism was calculated as the disappearance of the test compound, compared to the 0-min control reaction incubations. Initial rates were calculated for the compound concentration and used to determine t1/2 values and subsequently, the intrinsic clearance, CLint = (0.693)(1/t1/2 (min))(mL incubation/million cells)."}, "SET-2": {"system": "SET-2", "assay": "Cell proliferation assay (CellTiter-Glo, 7-day)", "assay_type": "cell-based", "conditions": "Homo sapiens, SET-2, 168 h"}, "CDK13/cyclin K": {"target": "CDK13/cyclin K (Homo sapiens, UniProt Q14004)", "sequence (Q14004 whole entry)": "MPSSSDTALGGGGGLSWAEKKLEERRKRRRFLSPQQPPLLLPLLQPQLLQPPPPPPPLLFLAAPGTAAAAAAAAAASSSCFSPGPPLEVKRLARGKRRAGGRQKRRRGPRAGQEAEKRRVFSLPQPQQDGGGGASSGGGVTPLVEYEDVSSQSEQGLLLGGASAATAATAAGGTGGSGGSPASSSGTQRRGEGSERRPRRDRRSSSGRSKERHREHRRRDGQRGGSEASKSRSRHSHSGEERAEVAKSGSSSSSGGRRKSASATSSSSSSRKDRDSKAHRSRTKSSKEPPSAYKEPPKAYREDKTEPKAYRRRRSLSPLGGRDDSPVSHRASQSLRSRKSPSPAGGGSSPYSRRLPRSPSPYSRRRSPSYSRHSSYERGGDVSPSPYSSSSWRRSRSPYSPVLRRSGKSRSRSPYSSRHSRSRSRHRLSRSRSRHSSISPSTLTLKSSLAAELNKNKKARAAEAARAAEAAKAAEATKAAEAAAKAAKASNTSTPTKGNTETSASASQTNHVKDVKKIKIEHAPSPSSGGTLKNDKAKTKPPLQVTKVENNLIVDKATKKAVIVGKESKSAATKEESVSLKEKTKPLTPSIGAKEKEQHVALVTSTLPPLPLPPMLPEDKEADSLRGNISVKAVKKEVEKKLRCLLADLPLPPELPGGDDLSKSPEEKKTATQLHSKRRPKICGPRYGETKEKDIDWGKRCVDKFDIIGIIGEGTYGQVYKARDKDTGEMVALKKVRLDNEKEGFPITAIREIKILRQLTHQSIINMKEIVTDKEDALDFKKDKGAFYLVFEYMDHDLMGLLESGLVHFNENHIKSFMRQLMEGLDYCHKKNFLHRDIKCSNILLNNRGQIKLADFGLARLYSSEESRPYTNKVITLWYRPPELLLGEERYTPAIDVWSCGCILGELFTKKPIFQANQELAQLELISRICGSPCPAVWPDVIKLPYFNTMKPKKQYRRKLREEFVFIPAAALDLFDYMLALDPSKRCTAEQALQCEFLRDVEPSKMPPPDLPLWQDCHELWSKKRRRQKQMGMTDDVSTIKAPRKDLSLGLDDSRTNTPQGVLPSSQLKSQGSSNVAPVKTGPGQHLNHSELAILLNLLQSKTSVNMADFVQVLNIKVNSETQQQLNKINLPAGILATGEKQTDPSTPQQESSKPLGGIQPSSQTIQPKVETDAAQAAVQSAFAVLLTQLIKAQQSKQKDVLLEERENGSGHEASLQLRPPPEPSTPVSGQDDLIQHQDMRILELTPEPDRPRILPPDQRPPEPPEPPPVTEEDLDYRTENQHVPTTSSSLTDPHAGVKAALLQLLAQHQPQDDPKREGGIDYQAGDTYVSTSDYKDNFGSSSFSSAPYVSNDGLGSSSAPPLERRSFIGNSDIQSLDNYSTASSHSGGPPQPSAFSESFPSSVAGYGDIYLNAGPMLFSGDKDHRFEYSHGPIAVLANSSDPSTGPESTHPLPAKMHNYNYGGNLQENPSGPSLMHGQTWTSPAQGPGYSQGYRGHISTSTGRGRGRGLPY", "sequence (O75909 whole entry partner)": "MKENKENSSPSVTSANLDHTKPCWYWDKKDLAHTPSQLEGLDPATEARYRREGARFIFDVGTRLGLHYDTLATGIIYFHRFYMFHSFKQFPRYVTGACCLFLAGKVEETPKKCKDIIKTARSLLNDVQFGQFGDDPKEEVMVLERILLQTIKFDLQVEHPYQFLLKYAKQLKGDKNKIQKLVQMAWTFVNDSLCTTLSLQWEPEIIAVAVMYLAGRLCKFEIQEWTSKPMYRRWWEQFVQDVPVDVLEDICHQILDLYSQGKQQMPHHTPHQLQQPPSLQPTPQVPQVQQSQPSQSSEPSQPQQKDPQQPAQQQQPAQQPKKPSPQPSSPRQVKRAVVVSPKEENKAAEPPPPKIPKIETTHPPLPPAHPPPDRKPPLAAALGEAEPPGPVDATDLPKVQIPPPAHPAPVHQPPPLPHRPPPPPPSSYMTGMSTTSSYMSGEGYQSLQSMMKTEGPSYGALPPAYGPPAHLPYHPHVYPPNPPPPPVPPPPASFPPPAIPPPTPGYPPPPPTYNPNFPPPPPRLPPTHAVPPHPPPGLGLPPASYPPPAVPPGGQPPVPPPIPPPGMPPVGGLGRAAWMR", "assay": "CDK panel kinase inhibition", "assay_type": "biochemical", "conditions": "read-out: Percentage of inhibition (%)", "source_text": "(§1) MK256 was synthesized in house. The kinase profiling of MK256 against various targets was done using the SelectScreen Kinase Profiling Services provided by ThermoFisher Scientific (Walham WA, USA). https://www.thermofisher.com/us/en/home/products-and-services/services/custom-services/screening-and-profiling-services/selectscreen-profiling-service/selectscreen-kinase-profiling-service.html."}, "CDK4/cyclin D3": {"target": "CDK4/cyclin D3 (Homo sapiens, UniProt P11802)", "assay": "CDK panel kinase inhibition", "assay_type": "biochemical", "conditions": "read-out: Percentage of inhibition (%)", "source_text": "as §1"}, "CDK2/cyclin A": {"target": "CDK2/cyclin A (Homo sapiens, UniProt P24941)", "assay": "CDK panel kinase inhibition", "assay_type": "biochemical", "conditions": "read-out: Percentage of inhibition (%)", "source_text": "as §1"}, "CDK9/cyclin T1": {"target": "CDK9/cyclin T1 (Homo sapiens, UniProt P50750)", "assay": "CDK panel kinase inhibition", "assay_type": "biochemical", "conditions": "read-out: Percentage of inhibition (%)", "source_text": "as §1"}, "CDK16 (PCTK1)/cyclin Y": {"target": "CDK16 (PCTK1)/cyclin Y (Homo sapiens, UniProt Q00536)", "assay": "CDK panel kinase inhibition", "assay_type": "biochemical", "conditions": "read-out: Percentage of inhibition (%)", "source_text": "as §1"}, "CDK5 (Inactive)": {"target": "CDK5 (Inactive) (Homo sapiens, UniProt Q00535)", "assay": "CDK panel kinase inhibition", "assay_type": "biochemical", "conditions": "read-out: Percentage of inhibition (%)", "source_text": "as §1"}, "CDK5/p25": {"target": "CDK5/p25 (Homo sapiens, UniProt Q00535)", "assay": "CDK panel kinase inhibition", "assay_type": "biochemical", "conditions": "read-out: Percentage of inhibition (%)", "source_text": "as §1"}, "CDK3/cyclin E1": {"target": "CDK3/cyclin E1 (Homo sapiens, UniProt Q00526)", "assay": "CDK panel kinase inhibition", "assay_type": "biochemical", "conditions": "read-out: Percentage of inhibition (%)", "source_text": "as §1"}, "CDK14 (PFTK1)/cyclin Y": {"target": "CDK14 (PFTK1)/cyclin Y (Homo sapiens, UniProt O94921)", "assay": "CDK panel kinase inhibition", "assay_type": "biochemical", "conditions": "read-out: Percentage of inhibition (%)", "source_text": "as §1"}, "CDK5/p35": {"target": "CDK5/p35 (Homo sapiens, UniProt Q00535)", "sequence (Q00535 whole entry)": "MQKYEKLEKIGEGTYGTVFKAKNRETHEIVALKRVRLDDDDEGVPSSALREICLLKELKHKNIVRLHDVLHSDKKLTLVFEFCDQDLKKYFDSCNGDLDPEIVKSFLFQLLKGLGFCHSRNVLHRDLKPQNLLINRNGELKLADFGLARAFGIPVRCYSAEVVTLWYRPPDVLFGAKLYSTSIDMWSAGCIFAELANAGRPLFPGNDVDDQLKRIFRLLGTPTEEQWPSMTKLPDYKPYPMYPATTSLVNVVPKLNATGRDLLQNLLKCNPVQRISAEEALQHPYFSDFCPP", "sequence (Q15078 2-307 partner limits assumed)": "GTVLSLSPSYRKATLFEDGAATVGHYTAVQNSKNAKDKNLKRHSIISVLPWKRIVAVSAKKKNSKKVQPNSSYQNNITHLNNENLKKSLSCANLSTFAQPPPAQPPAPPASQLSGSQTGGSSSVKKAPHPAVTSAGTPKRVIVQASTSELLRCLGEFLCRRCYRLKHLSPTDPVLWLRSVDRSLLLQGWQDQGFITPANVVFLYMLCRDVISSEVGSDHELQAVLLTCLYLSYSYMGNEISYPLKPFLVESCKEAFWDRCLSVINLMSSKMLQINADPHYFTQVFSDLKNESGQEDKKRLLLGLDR", "assay": "CDK panel kinase inhibition", "assay_type": "biochemical", "conditions": "read-out: Percentage of inhibition (%)", "source_text": "as §1"}, "CDK7/cyclin H/MNAT1": {"target": "CDK7/cyclin H/MNAT1 (Homo sapiens, UniProt P50613)", "assay": "CDK panel kinase inhibition", "assay_type": "biochemical", "conditions": "read-out: Percentage of inhibition (%)", "source_text": "as §1"}, "CDK17/cyclin Y": {"target": "CDK17/cyclin Y (Homo sapiens, UniProt Q00537)", "sequence (Q00537 whole entry)": "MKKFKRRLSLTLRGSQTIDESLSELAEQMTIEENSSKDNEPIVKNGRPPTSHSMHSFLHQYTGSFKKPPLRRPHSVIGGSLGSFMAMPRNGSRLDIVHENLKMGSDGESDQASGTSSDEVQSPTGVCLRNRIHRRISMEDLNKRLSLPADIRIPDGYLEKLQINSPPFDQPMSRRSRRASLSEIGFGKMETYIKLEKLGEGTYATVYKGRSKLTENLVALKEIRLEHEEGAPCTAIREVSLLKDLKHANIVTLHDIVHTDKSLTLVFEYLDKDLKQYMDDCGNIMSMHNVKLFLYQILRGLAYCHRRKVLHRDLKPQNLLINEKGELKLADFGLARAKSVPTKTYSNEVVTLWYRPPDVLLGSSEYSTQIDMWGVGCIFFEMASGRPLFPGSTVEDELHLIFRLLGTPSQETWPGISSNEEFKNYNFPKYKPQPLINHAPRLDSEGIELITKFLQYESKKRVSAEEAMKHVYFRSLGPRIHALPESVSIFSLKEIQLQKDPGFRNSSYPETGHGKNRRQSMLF", "sequence (Q8ND76 whole entry partner)": "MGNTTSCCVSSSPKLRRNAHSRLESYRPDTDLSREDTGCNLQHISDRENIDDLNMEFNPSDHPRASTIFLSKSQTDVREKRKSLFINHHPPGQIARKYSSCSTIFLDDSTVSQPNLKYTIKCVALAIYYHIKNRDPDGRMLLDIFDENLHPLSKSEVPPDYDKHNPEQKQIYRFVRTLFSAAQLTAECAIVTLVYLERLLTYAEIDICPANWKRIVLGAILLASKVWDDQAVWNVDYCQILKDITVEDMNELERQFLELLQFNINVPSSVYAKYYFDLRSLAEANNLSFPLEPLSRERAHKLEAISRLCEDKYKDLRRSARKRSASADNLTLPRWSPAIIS", "assay": "CDK panel kinase inhibition", "assay_type": "biochemical", "conditions": "read-out: Percentage of inhibition (%)", "source_text": "as §1"}, "CDK18/cyclin Y": {"target": "CDK18/cyclin Y (Homo sapiens, UniProt Q07002)", "assay": "CDK panel kinase inhibition", "assay_type": "biochemical", "conditions": "read-out: Percentage of inhibition (%)", "source_text": "as §1"}, "CDK6/cyclin D1": {"target": "CDK6/cyclin D1 (Homo sapiens, UniProt Q00534)", "sequence (Q00534 whole entry)": "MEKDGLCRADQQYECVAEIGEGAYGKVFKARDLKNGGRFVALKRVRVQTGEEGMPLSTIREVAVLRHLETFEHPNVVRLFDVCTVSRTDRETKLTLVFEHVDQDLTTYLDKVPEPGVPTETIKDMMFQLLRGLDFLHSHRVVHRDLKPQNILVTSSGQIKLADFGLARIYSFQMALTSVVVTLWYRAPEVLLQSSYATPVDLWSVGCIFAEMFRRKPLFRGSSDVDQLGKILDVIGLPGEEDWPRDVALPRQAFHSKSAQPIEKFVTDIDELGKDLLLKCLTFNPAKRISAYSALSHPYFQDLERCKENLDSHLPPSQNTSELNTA", "sequence (P24385 whole entry partner)": "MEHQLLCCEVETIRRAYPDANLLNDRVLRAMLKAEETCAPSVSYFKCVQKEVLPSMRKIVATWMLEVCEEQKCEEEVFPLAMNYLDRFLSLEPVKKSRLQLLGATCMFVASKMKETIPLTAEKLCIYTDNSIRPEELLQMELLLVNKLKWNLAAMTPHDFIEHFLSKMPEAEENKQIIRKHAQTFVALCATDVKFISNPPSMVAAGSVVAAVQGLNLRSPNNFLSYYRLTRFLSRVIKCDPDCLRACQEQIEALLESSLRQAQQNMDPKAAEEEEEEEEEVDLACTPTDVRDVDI", "assay": "CDK panel kinase inhibition", "assay_type": "biochemical", "conditions": "read-out: Percentage of inhibition (%)", "source_text": "as §1"}, "CDK1/cyclin B": {"target": "CDK1/cyclin B (Homo sapiens, UniProt P06493)", "sequence (P06493 whole entry)": "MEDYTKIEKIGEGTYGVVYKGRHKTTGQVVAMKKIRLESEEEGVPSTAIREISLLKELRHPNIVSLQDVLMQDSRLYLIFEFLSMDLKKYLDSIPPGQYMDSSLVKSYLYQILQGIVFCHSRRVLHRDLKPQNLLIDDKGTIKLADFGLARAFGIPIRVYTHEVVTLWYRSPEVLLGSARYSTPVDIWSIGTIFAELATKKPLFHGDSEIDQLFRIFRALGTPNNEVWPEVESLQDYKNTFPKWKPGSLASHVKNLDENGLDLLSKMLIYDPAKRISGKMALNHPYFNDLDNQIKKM", "sequence (P14635 whole entry partner)": "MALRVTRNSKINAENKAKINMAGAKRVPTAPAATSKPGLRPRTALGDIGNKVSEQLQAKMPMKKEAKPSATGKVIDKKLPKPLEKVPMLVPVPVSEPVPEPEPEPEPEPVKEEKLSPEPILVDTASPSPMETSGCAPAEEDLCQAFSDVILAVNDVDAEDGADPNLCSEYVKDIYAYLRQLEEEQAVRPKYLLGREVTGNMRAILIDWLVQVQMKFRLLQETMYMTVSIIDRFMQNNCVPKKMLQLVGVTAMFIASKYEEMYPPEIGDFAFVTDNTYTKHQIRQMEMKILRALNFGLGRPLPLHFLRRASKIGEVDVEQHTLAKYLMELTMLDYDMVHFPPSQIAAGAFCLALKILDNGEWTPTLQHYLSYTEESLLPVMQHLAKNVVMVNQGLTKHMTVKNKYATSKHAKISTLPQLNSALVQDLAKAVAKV", "assay": "CDK panel kinase inhibition", "assay_type": "biochemical", "conditions": "read-out: Percentage of inhibition (%)", "source_text": "as §1"}, "CDK4/cyclin D1": {"target": "CDK4/cyclin D1 (Homo sapiens, UniProt P11802)", "assay": "CDK panel kinase inhibition", "assay_type": "biochemical", "conditions": "read-out: Percentage of inhibition (%)", "source_text": "as §1"}, "CDK2/cyclin E1": {"target": "CDK2/cyclin E1 (Homo sapiens, UniProt P24941)", "assay": "CDK panel kinase inhibition", "assay_type": "biochemical", "conditions": "read-out: Percentage of inhibition (%)", "source_text": "as §1"}, "CDK9/cyclin K": {"target": "CDK9/cyclin K (Homo sapiens, UniProt P50750)", "assay": "CDK panel kinase inhibition", "assay_type": "biochemical", "conditions": "read-out: Percentage of inhibition (%)", "source_text": "as §1"}, "hERG": {"target": "hERG (Homo sapiens, UniProt Q12809)", "assay": "hERG safety assay", "conditions": "30 uM"}, "CYP3A4-MDZ": {"target": "CYP3A4-MDZ (Homo sapiens, UniProt P08684)", "assay": "Cytochrome P450 inhibition assay", "assay_type": "in vitro ADME", "conditions": "50 uM"}},
  "data": [
    {"compound": "Nc1nccc2c(Br)cc3cc(C(=O)O)ccc3c12", "note": "[MK256]", "values": [
      {"measurement": "cytochrome P450 inhibition", "setting": "CYR2C8", "result": "no inhibition"},
      {"measurement": "Clint (μL·min^−1·mg protein^−1)", "setting": "[1]; Human hepatocytes", "result": 16, "unit": "μL·min^−1·mg protein^−1"},
      {"measurement": "half-life at 1 µM", "setting": "[1]; human, cryopreserved human hepatocytes (LiverPool 20-donor), read-out: T½", "result": 1.48, "unit": "h"},
      {"measurement": "IC50", "setting": "SET-2", "result": 212, "unit": "nM"},
      {"measurement": "inhibition at 0.2 µM", "setting": "CDK13/cyclin K; 200 nM", "result": 27, "unit": "%"},
      {"measurement": "inhibition at 10 µM", "setting": "CDK13/cyclin K; 10 μM", "result": 95, "unit": "%"},
      {"measurement": "inhibition at 0.2 µM", "setting": "CDK4/cyclin D3; 200 nM", "result": -3, "unit": "%"},
      {"measurement": "inhibition at 10 µM", "setting": "CDK4/cyclin D3; 10 μM", "result": 23, "unit": "%"},
      {"measurement": "inhibition at 0.2 µM", "setting": "CDK2/cyclin A; 200 nM", "result": 7, "unit": "%"},
      {"measurement": "inhibition at 10 µM", "setting": "CDK2/cyclin A; 10 μM", "result": 85, "unit": "%"},
      {"measurement": "inhibition at 0.2 µM", "setting": "CDK9/cyclin T1; 200 nM", "result": 82, "unit": "%"},
      {"measurement": "inhibition at 10 µM", "setting": "CDK9/cyclin T1; 10 μM", "result": 98, "unit": "%"},
      {"measurement": "inhibition at 0.2 µM", "setting": "CDK16 (PCTK1)/cyclin Y; 200 nM", "result": 1, "unit": "%"},
      {"measurement": "inhibition at 10 µM", "setting": "CDK16 (PCTK1)/cyclin Y; 10 μM", "result": 67, "unit": "%"},
      {"measurement": "inhibition at 0.2 µM", "setting": "CDK5 (Inactive); 200 nM", "result": 7, "unit": "%"},
      {"measurement": "inhibition at 10 µM", "setting": "CDK5 (Inactive); 10 μM", "result": 70, "unit": "%"},
      {"measurement": "inhibition at 0.2 µM", "setting": "CDK5/p25; 200 nM", "result": 2, "unit": "%"},
      {"measurement": "inhibition at 10 µM", "setting": "CDK5/p25; 10 μM", "result": 89, "unit": "%"},
      {"measurement": "inhibition at 0.2 µM", "setting": "CDK3/cyclin E1; 200 nM", "result": 4, "unit": "%"},
      {"measurement": "inhibition at 10 µM", "setting": "CDK3/cyclin E1; 10 μM", "result": 82, "unit": "%"},
      {"measurement": "inhibition at 0.2 µM", "setting": "CDK14 (PFTK1)/cyclin Y; 200 nM", "result": 23, "unit": "%"},
      {"measurement": "inhibition at 10 µM", "setting": "CDK14 (PFTK1)/cyclin Y; 10 μM", "result": 97, "unit": "%"},
      {"measurement": "inhibition at 0.2 µM", "setting": "CDK5/p35; 200 nM", "result": 7, "unit": "%"},
      {"measurement": "inhibition at 10 µM", "setting": "CDK5/p35; 10 μM", "result": 90, "unit": "%"},
      {"measurement": "inhibition at 0.2 µM", "setting": "CDK7/cyclin H/MNAT1; 200 nM", "result": 9, "unit": "%"},
      {"measurement": "inhibition at 10 µM", "setting": "CDK7/cyclin H/MNAT1; 10 μM", "result": 54, "unit": "%"},
      {"measurement": "inhibition at 0.2 µM", "setting": "CDK17/cyclin Y; 200 nM", "result": 25, "unit": "%"},
      {"measurement": "inhibition at 10 µM", "setting": "CDK17/cyclin Y; 10 μM", "result": 94, "unit": "%"},
      {"measurement": "inhibition at 0.2 µM", "setting": "CDK18/cyclin Y; 200 nM", "result": 37, "unit": "%"},
      {"measurement": "inhibition at 10 µM", "setting": "CDK18/cyclin Y; 10 μM", "result": 98, "unit": "%"},
      {"measurement": "inhibition at 0.2 µM", "setting": "CDK6/cyclin D1; 200 nM", "result": -12, "unit": "%"},
      {"measurement": "inhibition at 10 µM", "setting": "CDK6/cyclin D1; 10 μM", "result": 23, "unit": "%"},
      {"measurement": "inhibition at 0.2 µM", "setting": "CDK1/cyclin B; 200 nM", "result": 34, "unit": "%"},
      {"measurement": "inhibition at 10 µM", "setting": "CDK1/cyclin B; 10 μM", "result": 97, "unit": "%"},
      {"measurement": "inhibition at 0.2 µM", "setting": "CDK4/cyclin D1; 200 nM", "result": 2, "unit": "%"},
      {"measurement": "inhibition at 10 µM", "setting": "CDK4/cyclin D1; 10 μM", "result": 23, "unit": "%"},
      {"measurement": "inhibition at 0.2 µM", "setting": "CDK2/cyclin E1; 200 nM", "result": 5, "unit": "%"},
      {"measurement": "inhibition at 10 µM", "setting": "CDK2/cyclin E1; 10 μM", "result": 70, "unit": "%"},
      {"measurement": "inhibition at 0.2 µM", "setting": "CDK9/cyclin K; 200 nM", "result": 76, "unit": "%"},
      {"measurement": "inhibition at 10 µM", "setting": "CDK9/cyclin K; 10 μM", "result": 101, "unit": "%"},
      {"measurement": "inhibition of hERG", "setting": "hERG", "result": "no inhibition"},
      {"measurement": "cytochrome P450 inhibition", "setting": "CYP3A4-MDZ", "result": "no inhibition"}
    ]}
  ]
}
